Key:
[1] = tested on: Mouse cortical cell cultures; test: Fe2+-induced free radical neurotoxicity in cortical cell cultures (LDH release); type: cell-based; settings: for Protection against free radical neurotoxicity compared with parent compound: comparison with BAS or NBAS
Description: (§1) Primary cortical cell cultures from embryonic mice were prepared and used to examine neuroprotective action of compounds. Mouse cortical cell culture system has been extensively used to study mechanisms and pharmacological intervention of neuronal death in neurological diseases. In brief, mouse cerebral cortices were removed from brains of the 15 day-old-fetal mice, in accordance with a protocol approved by our institutional animal care committee. The neocortices were gently triturated and plated on 24 well plates (5 hemispheres/plate) precoated with 100 μg/ml poly-D-lysine and 4 μg/ml laminin. Plating media consist of Eagles minimal essential media (MEM, Earles salts, supplied glutamine-free) supplemented with 5% horse serum, 5% fetal bovine serum, 2 mM glutamine, and 21 mM glucose. Cultures were maintained at 37° C. in a humidified 5% CO2 atmosphere. After 7 days in vitro (DIV 7), cultures were shifted into a growth medium identical to the plating medium but lacking fetal serum. At DIV 7-9, 10 mM cytosine arabinofuranoside was included to halt overgrowth of glia. Mixed cultures of neurons and glia were then fed twice a week.
(§2) The percent neuronal death was normalized to the mean LDH value released 24 hr after continuous exposure 500 μM NMDA (=100) or a sham control (=0).
(§3) The neuroprotective action of 5-amino salicylic acid (AS) was examined in primary cortical cell cultures. Mouse cortical cell cultures (DIV 12-14) were exposed to 300μ M NMDA for 10 min (1a), continuously to 50μ M Fe^2+ (1b), or 300μ M Zn^2+ for 30 min (1c), alone or with inclusion of 10-300μ M 5-amino salicylic acid (AS). Neuronal death was analyzed 24 hr later by measuring levels of LDH released into the bathing medium, mean±SEM (n=9-12 (1a), n=4-8 (1b) or n=4 (1c) culture wells per condition), scaled to mean LDH efflux value 24 hr after sham wash (=0) and continuous exposure to 500μ M NMDA (=100).
(§4) Neuronal death was analyzed 24 hr later by measuring levels of LDH released into the medium, meant SEM (n=7-8 (2a), n=3-6 (2b), n=4 (2c), or n=4 (2d) culture wells per condition). FIG. 2. indicates significant difference from relevant control, at p<0.05 using ANOVA and Student-Neuman-Keuls test.
(§5) 5-(pentafluorobenzyl)amino salicylic acid (PBAS) was synthesized and tested against neuronal injuries. Mouse cortical cell cultures (DIV 12-14) were exposed to 300μ M NMDA for 10 min (8a), continuously to 50μ M Fe^2+ (8b) or 10 mM BSO (8c), or 300μ M Zn^2+ for 30 min (8d), alone or with inclusion of indicated doses of 5-(pentafluorobenzyl)amino salicylic acid (PBAS). Neuronal death was analyzed 24 hr later by measuring levels of LDH released into the medium, mean t SEM (n=11-16 (8a), n=3-6 (8b), n=4-11 (8c), or n=12 (8d) culture wells per condition).
(§6) Mouse cortical cell cultures (DIV 12-14) were exposed to 300μ M NMDA for 10 min (11a) or continuously to 50μ M Fe^2− (11b), alone or with inclusion of indicated doses of 5-(4-nitrobenzyl)-N-acetylamino-2-acetoxy ethylbenzoate (NNAAE). Neuronal death was analyzed 24 hr later by measuring levels of LDH released into the medium, mean±SEM (n=10-12 (11a), n=7-8 (11b), or n=4 (11c) culture wells per condition).
(§7) Mouse cortical cell cultures (DIV 12-14) were exposed to 300μ M NMDA for 10 min (15a) or continuously to 50μ M Fe^2− (15b), alone or with inclusion of indicated doses of 5-[3-(4-nitrophenyl)-n-propyl]aminosalicylic acid (NPPAA). Neuronal death was analyzed 24 hr later by measuring levels of LDH released into the medium, mean±SEM (n=4 (15a) or n=3-8 (15b) culture wells per condition).

[2] = tested on: Mouse cortical cell cultures; test: NMDA-induced neuronal death in cortical cell cultures (LDH release); type: cell-based; settings: 300 μM NMDA 10 min
Description: as §1, §2, §3, §4, §5, §6, §7

[3] = Anti-oxidant effect: decrease in DPPH absorption at 517 nm; type: biochemical; settings: for A517 nm (DPPH): 100 uM DPPH in ethanol, 30 min, mean±SEM
Description: To examine anti-oxidant effect, DPPH (2,2-diphenyl-1-picryl-hydrazyl radical), a stable free radical, was dissolved in ethanol to make a 100μ M solution. A compound was reacted with DPPH or ethanol. After incubation for 30 min, relative decrease in DPPH absorption at 517 nm was measured by a spectrophotometer.
AS or trolox was reacted with 100 uM DPPH dissolved in ethanol for 30 min. Anti-oxidant property was analyzed by measuring changes in the level of DPPH at 517 nm, mean±SEM (n=3 test tubes per condition), after subtracting background value resulting from ethanol alone.
Anti-oxidant property was analyzed by measuring changes in DPPH at 517 nm, mean±SEM (n=3 test tubes per condition), after subtracting background value resulting from ethanol alone.
NBAS was reacted with 100 uM DPPH dissolved in ethanol for 30 min. Anti-oxidant property was analyzed by measuring changes in DPPH at 517 nm, mean±SEM (n=3 test tubes per condition), after subtracting background value resulting from ethanol alone.
PBAS was reacted with 100 uM DPPH dissolved in ethanol for 30 min. Anti-oxidant property was analyzed by measuring changes in DPPH at 517 nm, mean±SEM (n=3 test tubes per condition), after subtracting background value resulting from ethanol alone.
NBAS derivatives (100μ M for each) were reacted with 100 μM DPPH dissolved in ethanol for 30 min. Anti-oxidant property was analyzed by measuring changes in DPPH at 517 nm, meant SEM (n=3 test tubes per condition), after subtracting background value resulting from ethanol alone.

[4] = tested on: Mouse cortical cell cultures; test: Zn2+ neurotoxicity in cortical cell cultures (LDH release); type: cell-based; settings: 300 μM Zn2+ 30 min
Description: as §1, with “Cultures were maintained at 37° C. in a humidified 5% CO2 atmosphere. After 7 days in vitro (DIV 7), cultures were shifted into a growth medium identical to the plating medium but lacking fetal serum. At DIV 7-9, 10 mM cytosine arabinofuranoside was included to halt overgrowth of glia. Mixed cultures of neurons and glia were then fed twice a week.” left out
The neuroprotective action of 5-amino salicylic acid (AS) was examined in primary cortical cell cultures. […] Neuronal death was analyzed 24 hr later by measuring levels of LDH released into the bathing medium, mean±SEM (n=9-12 (1a), n=4-8 (1b) or n=4 (1c) culture wells per condition), scaled to mean LDH efflux value 24 hr after sham wash (=0) and continuous exposure to 500μ M NMDA (=100).
(§8) Neuronal death was analyzed 24 hr later by measuring levels of LDH released into the medium, meant SEM (n=7-8 (2a), n=3-6 (2b), n=4 (2c), or n=4 (2d) culture wells per condition). […]

[5] = tested on: Mouse cortical cell cultures; test: BSO-induced free radical neurotoxicity in cortical cell cultures (LDH release); type: cell-based; settings: 10 mM BSO continuously; compound 1 μM
Description: as §1, with “After 7 days in vitro (DIV 7), cultures were shifted into a growth medium identical to the plating medium but lacking fetal serum. At DIV 7-9, 10 mM cytosine arabinofuranoside was included to halt overgrowth of glia. Mixed cultures of neurons and glia were then fed twice a week.” left out
as §8
5-(pentafluorobenzyl)amino salicylic acid (PBAS) was synthesized and tested against neuronal injuries. […] Neuronal death was analyzed 24 hr later by measuring levels of LDH released into the medium, mean t SEM (n=11-16 (8a), n=3-6 (8b), n=4-11 (8c), or n=12 (8d) culture wells per condition).

[6] = 50 μM Fe2+ continuously, compound 1 μM
[7] = 50 μM Fe2+ continuously, compound 10 μM

SMILES: O=C(O)c1cc(NCCCc2ccc([N+](=O)[O-])cc2)ccc1O [NPPAA, 5-[3-(4-nitrophenyl)-n-propyl]aminosalicylic acid]
- Effect on Fe2+-induced neuronal death, in words [1, 6]: complete blockade
- Protection against free radical neurotoxicity compared with parent compound [1]: more effective than NBAS
- Effect on NMDA-induced neuronal death, in words ([2]; compound 300 μM): slightly reduced
- A517 nm (DPPH) ([3]; compound 100 μM): 0.09 ± 0.02

SMILES: O=C(Nc1ccc(O)c(C(=O)O)c1)c1ccc([N+](=O)[O-])cc1 [NBAA, 5-(4-nitrobenzoyl)aminosalicylic acid]
- Protection against free radical neurotoxicity compared with parent compound [1]: weaker than NBAS
- Effect on NMDA-induced neuronal death, in words ([2]; compound 30 μM): significantly attenuated
- Effect on NMDA-induced neuronal death, in words ([2]; compound 30-300 μM): not further increased
- A517 nm (DPPH) ([3]; compound 100 μM): 0.42 ± 0.22

SMILES: Cc1c(C)c2c(c(C)c1O)CCC(C)(C(=O)O)O2 (stereo not drawn) [Trolox, reference compound]
- A517 nm (DPPH) ([3]; compound 3 μM): 1.08 ± 0.1
- A517 nm (DPPH) ([3]; compound 10 μM): 0.89 ± 0.08
- A517 nm (DPPH) ([3]; compound 30 μM): 0.39 ± 0.06
- A517 nm (DPPH) ([3]; compound 100 μM): 0.05 ± 0.01
- A517 nm (DPPH) ([3]; compound 300 μM): 0.03 ± 0.01

SMILES: CCOC(=O)c1cc(N(Cc2ccc([N+](=O)[O-])cc2)C(C)=O)ccc1OC(C)=O [NNAAE, 5-(4-nitrobenzyl)-N-acetylamino-2-acetoxy ethylbenzoate]
- Effect on Fe2+-induced neuronal death, in words [1, 7]: blocked

SMILES: O=C(O)c1cc(NCCc2ccc([N+](=O)[O-])cc2)ccc1O [NPAA, 5-[2-(4-nitrophenyl)-ethyl]aminosalicylic acid]
- Effect on Fe2+-induced neuronal death, in words [1, 6]: complete blockade
- Protection against free radical neurotoxicity compared with parent compound [1]: more effective than NBAS
- Effect on NMDA-induced neuronal death, in words ([2]; compound 300 μM): slightly reduced
- A517 nm (DPPH) ([3]; compound 100 μM): 0.09 ± 0.01

SMILES: O=C(O)c1cc(NCc2ccc([N+](=O)[O-])cc2)ccc1O [NBAS, 5-(4-nitrobenzyl)aminosalicylic acid]
- A517 nm (DPPH) ([3]; compound 10 μM): 0.37 ± 0.1
- A517 nm (DPPH) ([3]; compound 30 μM): 0.04 ± 0.01
- A517 nm (DPPH) ([3]; compound 100 μM): 0.04 ± 0.00
- A517 nm (DPPH) ([3]; compound 300 μM): 0.04 ± 0.00

SMILES: CCOC(=O)c1cc(NCc2ccc([N+](=O)[O-])cc2)ccc1O [NAHE, 5-(4-nitrobenzyl)amino-2-hydroxy ethylbenzoate]
- Effect on Fe2+-induced neuronal death, in words [1, 7]: blocked

SMILES: O=C(O)c1cc(NCc2c(F)c(F)c(F)c(F)c2F)ccc1O [PBAS, 5-(pentafluorobenzyl)aminosalicylic acid]
- Effect on Fe2+-induced neuronal death, in words [1, 6]: significantly reduced
- Effect on Fe2+-induced neuronal death, in words ([1]; 50 μM Fe2+ continuously, compound 3 μM): near completely blocked
- Effect on Zn2+-induced neuronal death, in words ([4]; compound 100-300 μM): attenuated
- Effect on BSO-induced neuronal death, in words [5]: blocked
- Reduction of NMDA-induced neuronal death ([2]; compound 300 μM, LDH 24 hr later): ~65%
- Effect on NMDA-induced neuronal death, in words ([2]; compound 100-1000 μM): reduced NMDA-induced neuronal death in a dose-dependent manner
- Effect on NMDA-induced neuronal death, in words ([2]; compound up to 1 mM): completely blocked
- Anti-oxidant property against DPPH, in words ([3]; DPPH, a stable free radical): reduced levels of DPPH
- A517 nm (DPPH) ([3]; compound 1 μM): 1.07 ± 0.07
- A517 nm (DPPH) ([3]; compound 3 μM): 1.01 ± 0.07
- A517 nm (DPPH) ([3]; compound 10 μM): 0.71 ± 0.09
- A517 nm (DPPH) ([3]; compound 30 μM): 0.21 ± 0.04
- A517 nm (DPPH) ([3]; compound 100 μM): 0.15 ± 0.02
- A517 nm (DPPH) ([3]; compound 300 μM): 0.16 ± 0.01

SMILES: CCOC(=O)c1cc(N(Cc2ccc([N+](=O)[O-])cc2)C(C)=O)ccc1O [NNAHE, 5-(4-nitrobenzyl)-N-acetylamino-2-hydroxy ethylbenzoate]
- Effect on Fe2+-induced neuronal death, in words [1, 7]: blocked

SMILES: O=C(O)c1cc(NS(=O)(=O)c2ccc([N+](=O)[O-])cc2)ccc1O [NBSAA, 5-(4-nitrobenzenesulfonyl)aminosalicylic acid]
- Protection against free radical neurotoxicity compared with parent compound [1]: weaker than NBAS
- Effect on NMDA-induced neuronal death, in words ([2]; compound 300 μM): markedly reduced
- Effect on NMDA-induced neuronal death, in words ([2]; compound 30-300 μM): attenuated NMDA neurotoxicity in a dose-dependent manner
- A517 nm (DPPH) ([3]; compound 100 μM): 0.15 ± 0.05

SMILES: Nc1ccc(O)c(C(=O)O)c1 [AS, 5-amino salicylic acid, reference compound]
- Effect on Fe2+-induced neuronal death, in words ([1]; 50 μM Fe2+ continuously 24 hr, compound 10-100 μM): dose-dependently prevented
- Effect on Zn2+-induced neuronal death, in words ([4]; compound 10-300 μM during and post Zn2+ treatment): not reduced
- Effect on NMDA-induced neuronal death, in words ([2]; compound 10-300 μM, LDH 24 hr later): did not attenuate
